{"source": "patent US8476430B2", "about": "“Fused heterocyclic compounds useful as kinase modulators” (Bristol-Myers Squibb Company, priority 2008, dated 2013)", "key": {"[1]": {"system": "Ramos RA1 B cells", "assay": "Ramos FLIPR assay", "format": "cell-based", "conditions": "Homo sapiens, inhibition of peak intracellular calcium after F(ab')2 anti-IgM/IgG stimulation, read-out: Human Ramos Cell FLIPR (IC50 μM)", "experimental": "Ramos RA1 B cells (ATCC® CRL-1596) at a density of 2×10^6 cells/ml in RPMI minus phenol red (Invitrogen 11835-030) and 50 mM HEPES (Invitrogen 15630-130) containing 0.1% BSA (Sigma A8577) were added to one half volume of calcium loading buffer (BD bulk kit for probenecid sensitive assays, #640177) and incubated at room temperature in the dark for 1 hour. Dye-loaded cells were pelleted (Beckmann GS-CKR, 1200 rpm, RT, 5 minutes) and resuspended in RT RPMI minus phenol red with 50 mM HEPES and 10% FBS to a density of 1×10^6 cells/ml. 150 μl aliquots (150,000/well) were plated into 96 well poly-D-lysine coated assay plates (BD 35 4640) and briefly centrifuged (Beckmann GS-CKR 800 rpm, 5 minutes, without brake). 50 μal compound dilutions in 0.4% DMSO/RPMI minus phenol red+50 mM HEPES+10% FBS were added to the wells and the plate was incubated at RT in the dark for 1 hour. Assay plate was briefly centrifuged as above prior to measuring calcium levels.\nUsing the FLIPR1 (Molecular devices), cells were stimulated by adding 50 μl 200 μg/ml F(ab′)2 anti-IgM/IgG (Jackson ImmunoResearch 109-006-127) diluted in 1×HBSS (Invitrogen 14025-076), 50 mM HEPES, 0.1% BSA. Changes in intracellular calcium concentrations were measured for 180 seconds and percent inhibition was determined relative to peak calcium levels seen in the presence of F(ab′)2 anti-IgM/IgG only."}, "[2]": {"target": "T1, human recombinant Btk (Homo sapiens, UniProt Q06187)", "T1 construct": "purchased Invitrogen Corporation", "T1 sequence (Q06187 whole entry)": "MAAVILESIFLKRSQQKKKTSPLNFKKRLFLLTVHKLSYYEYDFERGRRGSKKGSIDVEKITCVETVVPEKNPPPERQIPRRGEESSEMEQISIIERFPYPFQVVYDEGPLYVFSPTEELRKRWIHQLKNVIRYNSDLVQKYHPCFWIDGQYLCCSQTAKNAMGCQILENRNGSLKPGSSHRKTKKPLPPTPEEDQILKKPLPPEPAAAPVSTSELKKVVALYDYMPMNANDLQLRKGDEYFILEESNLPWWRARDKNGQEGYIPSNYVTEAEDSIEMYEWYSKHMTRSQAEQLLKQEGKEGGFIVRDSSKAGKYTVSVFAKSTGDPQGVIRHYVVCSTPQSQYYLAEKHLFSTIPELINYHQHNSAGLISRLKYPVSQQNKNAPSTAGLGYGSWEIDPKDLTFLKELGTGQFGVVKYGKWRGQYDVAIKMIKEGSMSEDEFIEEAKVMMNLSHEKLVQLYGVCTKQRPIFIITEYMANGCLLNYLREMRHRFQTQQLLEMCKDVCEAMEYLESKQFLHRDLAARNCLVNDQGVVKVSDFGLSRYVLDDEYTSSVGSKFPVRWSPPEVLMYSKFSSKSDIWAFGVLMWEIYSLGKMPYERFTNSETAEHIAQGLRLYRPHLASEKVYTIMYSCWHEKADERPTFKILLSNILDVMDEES", "assay": "Human recombinant Btk enzyme assay", "format": "biochemical", "conditions": "human recombinant Btk 1 nM, ATP 20 μM, 60 min room temperature", "experimental": "Human Recombinant Btk Enzyme Assay\nTo V-bottom 384-well plates were added test compounds, human recombinant Btk (1 nM, Invitrogen Corporation), fluoresceinated peptide (1.5 μM), ATP (20 μM), and assay buffer (20 mM HEPES pH 7.4, 10 mM MgCl2, 0.015% Brij35 and 4 mM DTT in 1.6% DMSO), with a final volume of 30 μL. After incubating at room temperature for 60 min, the reaction was terminated by adding 45 μl of 35 mM EDTA to each sample. The reaction mixture was analyzed on the Caliper LABCHIP® 3000 (Caliper, Hopkinton, Mass.) by electrophoretic separation of the fluorescent substrate and phosphorylated product. Inhibition data were calculated by comparison to no enzyme control reactions for 100% inhibition and no inhibitor controls for 0% inhibition. Dose response curves were generated to determine the concentration required inhibiting 50% of kinase activity (IC50). Compounds were dissolved at 10 mM in dimethylsulfoxide (DMSO) and evaluated at eleven concentrations."}}, "data": [{"smiles": "Cc1c(NC(=O)c2ccc(C(C)(C)C)cc2)cccc1-c1nc(Nc2ccc(C(=O)N3CCOCC3)cc2)c2nccn2n1", "note": "[Example 1, 4-tert-Butyl-N-(2-methyl-3-(4-(4-(morpholine-4-carbonyl)phenylamino)imidazo[1,2-f][1,2,4]triazin-2-yl)phenyl)benzamide]", "values": [{"measurement": "IC50", "setting": "[1]", "result": 0.028, "unit": "µM"}, {"measurement": "IC50", "setting": "[2]", "result": 46, "unit": "nM"}]}]}
